Data from patent publication US11529347B2, “SHP2 phosphatase inhibitors and methods of use thereof” (Relay Therapeutics, Inc., priority 2016, dated 2022).

Target: SHP2 (Homo sapiens (Human), UniProt Q06124)
Experiment: SHP2 Allosteric Inhibition Assay (DiFMUP prompt fluorescence)
Format: biochemical
Settings: 0.25 nM SHP2 activated with 0.5 μM peptide IRS1_pY1172(dPEG8)pY1222; substrate DiFMUP 100 μM
Excerpt: SHP2 is allosterically activated through binding of bis-tyrosyl-phosphorylated peptides to its Src Homology 2 (SH2) domains. The latter activation step leads to the release of the auto-inhibitory interface of SHP2, which in turn renders the SHP2 protein tyrosine phosphatase (PTP) active and available for substrate recognition and reaction catalysis. The catalytic activity of SHP2 was monitored using the surrogate substrate DiFMUP in a prompt fluorescence assay format.
The inhibitor dose response curves were analyzed using normalized IC50 regression curve fitting with control based normalization.

| SMILES | IC50 |
| --- | --- |
| Clc1ccccc1-c1n[nH]c2nc(N3C4CCCC3CC4)cnc12 [Compound 8] | 10 to 100 µM |
| O=C1NCC2(CCN(c3cnc4c(-c5ccccc5Cl)n[nH]c4n3)CC2)N1 [Compound 11] | 10 to 100 µM |
| CC(C)(N)C1CCN(c2cnc3c(-c4ccccc4Cl)n[nH]c3n2)CC1 [Compound 14] | 10 to 100 µM |
| CC1(CN)CCN(c2cnc3c(-c4ncccc4Cl)n[nH]c3n2)CC1 [Compound 22] | 10 to 100 µM |
| NC(CO)C1CCN(c2cnc3c(-c4ccccc4Cl)n[nH]c3n2)CC1 (stereo not shown) [Compound 30] | < 10 µM |
| CC1(N)CCN(c2cnc3c(-c4cccc(Cl)c4)n[nH]c3n2)CC1 [Compound 31] | < 10 µM |
| COC1(CN)CCN(c2cnc3c(-c4ccccc4Cl)n[nH]c3n2)CC1 [Compound 32] | < 10 µM |
| N[C@H]1CCN(c2cnc3c(-c4ccccc4Cl)n[nH]c3n2)C[C@@H]1O [Compound 33] | < 10 µM |
| CC1(CN)CCN(c2cnc3c(-c4cccc(Cl)c4Br)n[nH]c3n2)CC1 [Compound 34] | < 10 µM |
| N[C@H]1CCCC12CCN(c1cnc3c(-c4ccccc4Cl)n[nH]c3n1)CC2 [Compound 35] | < 10 µM |
| CNCC1(C)CCN(c2cnc3c(-c4ccccc4Cl)n[nH]c3n2)CC1 [Compound 36] | 10 to 100 µM |
| N[C@@H]1CCC12CCN(c1cnc3c(-c4ccccc4Cl)n[nH]c3n1)CC2 [Compound 37] | 10 to 100 µM |
| NC1CCN(c2cnc3c(-c4ccccc4Cl)n[nH]c3n2)CC1 [Compound 38] | < 10 µM |
| COc1cccc(-c2n[nH]c3nc(N4CCC(C)(CN)CC4)cnc23)c1Cl [Compound 39] | < 10 µM |
| NCC1CCCN(c2cnc3c(-c4ccccc4Cl)n[nH]c3n2)CC1 (stereo not shown) [Compound 40] | < 10 µM |
| Clc1ccccc1-c1n[nH]c2nc(N3CCC4(CCCN4)CC3)cnc12 [Compound 41] | < 10 µM |

| SMILES | IC50 |
| --- | --- |
| COCC1(CN)CCN(c2cnc3c(-c4ccccc4Cl)n[nH]c3n2)CC1 [Compound 42] | < 10 µM |
| CC1(CN)CCN(c2cnc3c(-c4ccccc4Cl)n[nH]c3n2)CC1 [Compound 43] | < 10 µM |
| Clc1ccccc1-c1n[nH]c2nc(N3CC4CNCC4C3)cnc12 (stereo not shown) [Compound 44] | < 10 µM |
| Clc1cccc(-c2n[nH]c3nc(N4CCCCC4)cnc23)c1Cl [Compound 45] | > 100 µM |
| NCC1(N)CCN(c2cnc3c(-c4ccccc4Cl)n[nH]c3n2)CC1 [Compound 46] | < 10 µM |
| CC(N)C1CCN(c2cnc3c(-c4ccccc4Cl)n[nH]c3n2)CC1 (stereo not shown) [Compound 47] | < 10 µM |
| CC1(CN)CCN(c2cnc3c(-c4cccc(Cl)c4F)n[nH]c3n2)CC1 [Compound 48] | < 10 µM |
| N[C@@H]1CC12CCN(c1cnc3c(-c4ccccc4Cl)n[nH]c3n1)CC2 [Compound 49] | 10 to 100 µM |
| CC1(CN)CCN(c2cnc3c(-c4cccc(Cl)c4)n[nH]c3n2)CC1 [Compound 50] | < 10 µM |
| NCC1(CO)CCN(c2cnc3c(-c4ccccc4Cl)n[nH]c3n2)CC1 [Compound 51] | < 10 µM |
| NCC1(O)CCN(c2cnc3c(-c4ccccc4Cl)n[nH]c3n2)CC1 [Compound 52] | < 10 µM |
| O=C1NCC2(CCCN(c3cnc4c(-c5ccccc5Cl)n[nH]c4n3)CC2)O1 (stereo not shown) [Compound 53] | 10 to 100 µM |
| COc1ccccc1-c1n[nH]c2nc(N3CCC(C)(CN)CC3)cnc12 [Compound 54] | < 10 µM |
| Clc1ccccc1-c1n[nH]c2nc(N3CCC4(CCNC4)C3)cnc12 (stereo not shown) [Compound 55] | 10 to 100 µM |
| NC1(CO)CCN(c2cnc3c(-c4ccccc4Cl)n[nH]c3n2)CC1 [Compound 56] | < 10 µM |
| N[C@@H]1[C@H]2CN(c3cnc4c(-c5cccc(Cl)c5)n[nH]c4n3)C[C@@H]12 [Compound F21] | < 10 µM |

Second part, the molecule after the results:

| IC50 | SMILES |
| --- | --- |
| < 10 µM | CC1(N)CCN(c2cnc3c(-c4ccccc4Cl)n[nH]c3n2)CC1 [Compound 6] |
| < 10 µM | N[C@H]1CC12CCN(c1cnc3c(-c4ccccc4Cl)n[nH]c3n1)CC2 [Compound 9] |
| < 10 µM | CC1(CN)CCN(c2cnc3c(-c4cccc(Cl)c4Cl)n[nH]c3n2)CC1 [Compound 10] |
| < 10 µM | NC(=O)C1(N)CCN(c2cnc3c(-c4cccc(Cl)c4)n[nH]c3n2)CC1 [Compound 12] |
| < 10 µM | CC1(CN)CCCN(c2cnc3c(-c4ccccc4Cl)n[nH]c3n2)CC1 (stereo not shown) [Compound 13] |
| < 10 µM | CC1(CN)CCN(c2cnc3c(-c4ccccc4)n[nH]c3n2)CC1 [Compound 15] |
| < 10 µM | N[C@@H]1CCCC12CCN(c1cnc3c(-c4ccccc4Cl)n[nH]c3n1)CC2 [Compound 16] |
| < 10 µM | CC1(N)CCN(c2cnc3c(-c4ccc(Cl)cc4)n[nH]c3n2)CC1 [Compound 17] |
| < 10 µM | NC1CC12CCN(c1cnc3c(-c4ccccc4Cl)n[nH]c3n1)CC2 (stereo not shown) [Compound 18] |
| < 10 µM | CC1(CN)CCN(c2cnc3c(-c4ccncc4)n[nH]c3n2)CC1 [Compound 19] |
| < 10 µM | NCC1(O)CCCN(c2cnc3c(-c4ccccc4Cl)n[nH]c3n2)CC1 (stereo not shown) [Compound 20] |
| < 10 µM | NCC1(F)CCN(c2cnc3c(-c4ccccc4Cl)n[nH]c3n2)CC1 [Compound 24] |
| < 10 µM | NCC1(O)CCN(c2cnc3c(-c4cccc(Cl)c4)n[nH]c3n2)CC1 [Compound 25] |
| < 10 µM | N[C@H]1CCC12CCN(c1cnc3c(-c4ccccc4Cl)n[nH]c3n1)CC2 [Compound 26] |
| < 10 µM | NCC1CCN(c2cnc3c(-c4cccc(Cl)c4)n[nH]c3n2)C1 (stereo not shown) [Compound 27] |
| < 10 µM | NC1CCC12CCN(c1cnc3c(-c4ccccc4Cl)n[nH]c3n1)CC2 (stereo not shown) [Compound 28] |
| < 10 µM | CC1(CN)CCN(c2cnc3c(-c4ccc(Cl)cc4)n[nH]c3n2)CC1 [Compound 29] |
